# From US6228985A, “Derivatives of aminobenzoic and aminobiphenylcarboxylic acids useful as anti-cancer agents” (Schering Corporation, priority 1998, dated 2001)
# Molecular target: T1, uPAR (Homo sapiens, UniProt Q03405)
# T1 construct: these cells express high levels of unoccupied uPA receptors; endogenous in cells; host or cells: DU-145 human prostate cancer cells (intact cells, harvested with trypsin/EDTA)
# Assay: cell-based, competition radioligand binding assay (specific binding of c-[125I-Tyr24]-ATFp to DU-145 cells)
# Settings: radioligand c-[125I-Tyr24]-ATFp 3 nM (1.5 Kd), 4° C. for 90 min, duplicate tubes, 2-3 independent experiments
# Procedure: The following assay procedure, which is a cell-based, competition radioligand binding assay, was carried out to determine the activity of the foregoing compounds as uPAR antagonists.
# Radioligand Preparation. The minimal receptor-binding sequence of uPA was determined by Apella et al., J. Biol. Chem. 262:4437-4440 (1987), utilizing non-radioactive peptides as competition for a larger uPA radioligand. Our assay was developed and characterized using an iodinated version of the minimal receptor binding sequence of human uPA (residues 12-32, Ala^19). The 21-amino acid peptide (cyclized), referred to herein as "c-ATFp", was synthesized and iodinated as follows: 10 ug of c-ATFp was iodinated with 1 mCi Na^125 I, using the Chloramine-T method (Iodo-Beads, Pierce Chemical Co.); iodinated peptide was separated from unincorporated iodine with Sep-Pak C18 cartridges (Millipore), and the C18-bound peptide was eluted with acetonitrile. This procedure routinely yielded a radioiodinated c-ATFp (c-[^125 I-Tyr^24 ]-ATFp) with specific activity of 105 Ci/mmol: [drawing 101]
# Determination of Radioligand Binding. DU-145, a human prostate cancer cell line, was selected for radioligand binding assays because these cells express high levels of unoccupied uPA receptors (approximately 500,000 receptors/cell). Subconfluent, 2 day cultures of DU-145 cells were prepared for radioligand binding assays by harvesting monolayers with trypsin/EDTA. The cells were washed one time with serum-free Dulbecco's Modified Eagle Medium (DMEM), and suspended at a cell density of 250,000 cells/ml in ice-cold DME containing 0.1% bovine serum albumin. Test compounds were solubilized in DMSO at 2 mg/ml and subsequently diluted in phosphate buffered saline to prepare stock concentrations of 200 ug/ml, 20 ug/ml, 2 ug/ml, 0.2 ug/ml, and 0.02 ug/ml. The binding reactions were initiated by addition of 1.0 ml cell suspension to microcentrifuge tubes containing 10 ul of: the indicated test compound solutions, or appropriately diluted DMSO controls, and c-[^25 ]-Tyr^24 ]-ATFp, such that the final concentration of radioligand was 3 nM (1.5 Kd). To control for specific binding, parallel reaction tubes were prepared containing 1,000-fold excess unlabeled c-ATFp. Reaction tubes were incubated with rocking at 4° C. for 90 min. Binding was terminated by 4° C. centrifugation at 800× g for 1 min in a refrigerated microcentrifuge. Unbound radioligand was removed by aspirating the reaction medium, adding fresh, ice-cold DMEM, 0.1% bovine serum albumin to the pelleted cells, and then quickly re-centrifuging and aspirating the wash from the cell pellet. The washing steps were completed in 2-4 minutes by this method, depending on the number of tubes in each experiment. Tips of microcentrifuge tubes containing the cell pellets were snipped and transferred to counting tubes. Radioactivity bound to the cells was determined in a gamma counter.
# Specific binding of the radioligand was calculated as the difference between the amount of c-[^125 I-Tyr^24 ]-ATFp bound in the absence (total binding) and presence (non-specific binding) of the unlabeled c-ATFp. The efficacy of test compounds for inhibiting specific binding of c-[^125 I-Tyr^24 ]-ATFp was determined by plotting a graph of specific binding (y-axis) as a function of test compound concentration (x-axis). The concentration of test compound required to inhibit 50% of the specific binding (lC50) was determined from the plot. The IC50 may be directly converted mathematically to Ki, which is a measure of the receptor binding affinity of the compounds under the defined assay conditions. Test compounds were evaluated in duplicate tubes, in 2-3 independent binding experiments.
# T1 sequence (Q03405 23-335): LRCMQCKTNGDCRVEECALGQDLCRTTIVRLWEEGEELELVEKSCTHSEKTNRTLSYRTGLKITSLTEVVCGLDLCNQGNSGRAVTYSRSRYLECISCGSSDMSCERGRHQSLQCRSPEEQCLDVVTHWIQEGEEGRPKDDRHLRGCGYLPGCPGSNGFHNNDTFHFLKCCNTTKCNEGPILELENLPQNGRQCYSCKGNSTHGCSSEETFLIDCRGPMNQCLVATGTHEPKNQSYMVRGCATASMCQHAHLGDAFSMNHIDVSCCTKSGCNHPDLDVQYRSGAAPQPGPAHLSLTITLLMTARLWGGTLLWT
row,Compound,IC50 [nM]
1,O=C(Cc1c[nH]c2ccccc12)Nc1ccc(-c2ccc(C(=O)N[C@@H](Cc3ccccc3)C(=O)O)cc2)cc1 [Example 8-A],20
2,O=C(N[C@@H](Cc1c[nH]c2ccccc12)C(=O)Nc1ccc(-c2ccc(C(=O)N[C@@H](Cc3ccccc3)C(=O)O)cc2)cc1)OCC1c2ccccc2-c2ccccc21 [Example 8-D],190
3,O=C(N[C@@H](Cc1c[nH]c2ccccc12)C(=O)Nc1ccc(-c2ccc(C(=O)N[C@@H](Cc3c[nH]c4ccccc34)C(=O)O)cc2)cc1)OCC1c2ccccc2-c2ccccc21 [Example 8-E],310
4,CC(=O)N[C@@H](Cc1c[nH]c2ccccc12)C(=O)Nc1ccc(-c2ccc(C(=O)NCCC(=O)O)cc2)cc1 [Example 8-F],0.9
5,CC(=O)N[C@H](Cc1c[nH]c2ccccc12)C(=O)Nc1ccc(-c2ccc(C(=O)NCCC(=O)O)cc2)cc1 [Example 8-G],18
6,CC(=O)N[C@@H](Cc1c[nH]c2ccccc12)C(=O)Nc1ccc(-c2ccc(C(=O)N[C@@H](Cc3ccccc3)C(=O)O)cc2)cc1 [Example 8-J],1.8
7,CC(=O)N[C@H](Cc1c[nH]c2ccccc12)C(=O)Nc1ccc(-c2ccc(C(=O)N[C@@H](Cc3ccccc3)C(=O)O)cc2)cc1 [Example 8-K],4
8,CC(=O)N[C@@H](Cc1c[nH]c2ccccc12)C(=O)Nc1ccc(-c2ccc(C(=O)N[C@H](Cc3ccccc3)C(=O)O)cc2)cc1 [Example 8-L],8
9,CC(=O)N[C@@H](Cc1c[nH]c2ccccc12)C(=O)Nc1ccc(C(=O)N[C@@H](Cc2ccccc2)C(=O)O)cc1 [Example 8-M],28
10,CC(=O)N[C@@H](Cc1c[nH]c2ccccc12)C(=O)Nc1cccc(-c2ccc(C(=O)N[C@@H](Cc3ccccc3)C(=O)O)cc2)c1 [Example 8-N],0.8
11,CC(=O)N[C@@H](Cc1c[nH]c2ccccc12)C(=O)Nc1ccc(-c2cccc(C(=O)N[C@@H](Cc3ccccc3)C(=O)O)c2)cc1 [Example 8-O],167
12,CC(=O)N[C@@H](Cc1c[nH]c2ccccc12)C(=O)NCc1ccccc1-c1ccc(C(=O)N[C@@H](Cc2ccccc2)C(=O)O)cc1 [Example 8-P],70
13,CC(=O)N[C@@H](Cc1ccccc1)C(=O)Nc1ccc(-c2ccc(C(=O)N[C@@H](Cc3ccccc3)C(=O)O)cc2)cc1 [Example 8-Q],18
14,CC(=O)N[C@@H](Cc1c[nH]c2ccccc12)C(=O)Nc1ccc(-c2ccc(C(=O)O)cc2)cc1 [Example 8-R],1500
15,O=C(O)C[C@H](NC(=O)c1ccc(-c2ccc(NC(=O)[C@H](Cc3c[nH]c4ccccc34)NC(=O)OCC3c4ccccc4-c4ccccc43)cc2)cc1)C(=O)O [Example 9-C],300
16,CC(=O)N[C@@H](Cc1c[nH]c2ccccc12)C(=O)Nc1ccc(-c2ccc(C(=O)N[C@@H](CC(=O)O)C(=O)O)cc2)cc1 [Example 9-H],60
17,CC(=O)N[C@H](Cc1c[nH]c2ccccc12)C(=O)Nc1ccc(-c2ccc(C(=O)N[C@@H](CC(=O)O)C(=O)O)cc2)cc1 [Example 9-I],17
18,CC(=O)N[C@@H](CCC(N)=O)C(=O)Nc1ccc(-c2ccc(C(=O)N[C@@H](Cc3ccccc3)C(=O)O)cc2)cc1 [Example 9-S],6
19,CC(=O)N[C@@H](Cc1c[nH]c2ccccc12)C(=O)Nc1ccc(-c2ccc(C(=O)N[C@@H](Cc3ccc(O)cc3)C(=O)O)cc2)cc1 [Example 9-T],3
20,CC(=O)N[C@@H](Cc1c[nH]c2ccccc12)C(=O)Nc1ccc(-c2ccc(C(=O)N[C@@H](Cc3ccccc3)C(N)=O)cc2)cc1 [Example 10-U],44
21,CC(=O)N[C@@H](Cc1c[nH]c2ccccc12)C(=O)Nc1ccc(-c2ccc(C(=O)N[C@@H](CC(=O)O)C(N)=O)cc2)cc1 [Example 10-V],1.3
22,CC(=O)N[C@@H](Cc1c[nH]c2ccccc12)C(=O)Nc1ccc(-c2ccc(C(=O)NCCc3ccccc3)cc2)cc1 [Example 11-W],355
23,CC(=O)N[C@@H](Cc1c[nH]c2ccccc12)C(=O)Nc1ccc(-c2ccc(C(N)=O)cc2)cc1 [Example 12-Y],91

# Molecular target: uPAR
# Assay: not given
# Settings: critical domain alone (uPA,12-32); read-out: affinity; cited from earlier work
row,Compound,Kd [nM]
1,"uPA,12-32: The critical domain alone (uPA,12-32); residues 12-32 of the EGF-like domain of uPA (DCLNGGTCVSNKYFSNIHWCN; UniProt P00749 32-52, looked up, fragment)",40

# Same assay, conditions: less than intact ATF; cited from earlier work
row,Compound,affinity relative to intact ATF (fold less)
1,"uPA,12-32: The critical domain alone (uPA,12-32); residues 12-32 of the EGF-like domain of uPA (DCLNGGTCVSNKYFSNIHWCN; UniProt P00749 32-52, looked up, fragment)",about 100 fold

# Test system: uPA:uPAR interaction
# Assay: not given
# Settings: cited from earlier work
row,Compound,inhibition of the uPA:uPAR interaction
1,Cc1ccc(C(=O)Nc2ccc(S(=O)(=O)O)c3cc(S(=O)(=O)O)cc(S(=O)(=O)O)c23)cc1NC(=O)c1cccc(NC(=O)Nc2cccc(C(=O)Nc3cc(C(=O)Nc4ccc(S(=O)(=O)O)c5cc(S(=O)(=O)O)cc(S(=O)(=O)O)c45)ccc3C)c2)c1 [suramin],inhibit the uPA:uPAR interaction
